Experimental data as given in publication PMC9400227, “αvβ3 integrin-specific exosomes engineered with cyclopeptide for targeted delivery of triptolide against malignant melanoma” (Journal of Nanobiotechnology, 2022).
In brackets after ≈: the same amount, converted by molar mass.

Experiments:
A375 cells [1] = test: Cell cycle assay (PI staining); assay type: cell-based, human; conditions: 24 h
Procedure: The cell cycle assay was carried out to explore the correlation between mitosis and cytotoxicity. […] The treated cells were then fixed with 70% ethanol for 12 h, washed with PBS 3 times, and stained with propidium iodide/RNase A for 30 min. After that, the red fluorescence of differently treated cells was recorded at 488 nm, and the DNA content of cells was also analyzed.

A375 cells [2] = test: Cell apoptosis assay (Annexin V-APC/7-AAD flow cytometry); conditions: 24 h
Procedure: Then, the cells were trypsinized by pancreatic enzymes without DMSO and resuspended in 500 μL 1× Binding Buffer. The cell suspension was stationarily cultured at room temperature for 15 min in the dark after adding 7-AAD and Annexin V-APC. Subsequently, cell apoptosis and necrosis were detected with a flow cytometer.

[3] = In vivo antitumor efficacy in A375 xenograft tumor model; conditions: tumor-bearing mice, Kaplan–Meier; control 25.5 days
A375 cells [4] = test: CCK-8 cytotoxicity assay; assay type: cell-based; conditions: Homo sapiens, A-375, 24 h
Procedure: A375 cells were incubated with different concentrations of TP for 24 h. After that, 10 μL of CCK-8 was added to the treated cells and incubated for another 20 min. The absorbance was detected using a microplate reader.

[5] = Plasma pharmacokinetics in tumor-bearing mice; conditions: nude, mouse, in vivo, iv, 600 ug/kg
Procedure: The TP concentrations in blood, heart, liver, spleen, lung, kidney, and tumor tissues were also quantified over time. […] The preparations were injected intravenously at drug-equivalent doses of 600 μg/kg TP. After injection, blood was sampled from the orbital vein at 5 min, 10 min, 15 min, 30 min, 1 h, 2 h, 4 h, 6 h, and 24 h. In addition, heart, liver, spleen, lung, kidney, and tumor tissues were collected at 5 min, 30 min, 1 h, 2 h, 4 h, 6 h, and 24 h. Nine mice were sacrificed at each time point (n = 3), whereas at 10 min and 15 min, the mice were only taken for blood and were not killed. The TP concentration in plasma and tissue homogenate was analyzed with UHPLC-MS/MS.
TP concentrations in cells, plasma, primary organs, and tumors were analyzed using UHPLC-MS/MS (Thermo Fisher Scientific, CA, USA). The separation was performed on an ACQUITY UPLCTM BEH C18 column (2.1 × 100 mm, i.d., 1.7 μm). The column temperature was maintained at 40 °C. The mobile phases were 1% acetic acid aqueous solution (A) and methanol (B). Isocratic elution with 40% A and 60% B was adopted at a flow rate of […]. The temperature and flow rate of dry gas (N2) were 350 °C and 8 L/min, respectively. The pressure of the nebulizer gas (N2) was 40 psi. The capillary voltage was […]. The positive multiple reaction monitoring (MRM) mode was adopted to determine TP and carbamazepine (internal standard, IS). The collision energy was 33 eV for both TP and IS. The precursor-to-product transitions were m/z 361.1 → 105.2 for TP and m/z 237.1 → 194.0 for IS.

A375 cells [6] = test: Transwell invasion assay; assay type: cell-based, human; conditions: A375 cells pretreated 6 h, Transwell with Matrigel 24 h
Procedure: Then, the differently treated cells were incubated in the apical Transwell insert (24-well plant covered with Matrigel polycarbonate membranes, pore size 8 μm). Meanwhile, 800 μL of DMEM with 10% FBS used for cell chemotaxis was added to the basolateral champers. After incubation for 24 h, the cells on the top side of the apical chamber were wiped, and then the migrated cells were fixed with 4% paraformaldehyde and stained with 0.1% crystal violet. After that, five random fields under an inverted microscope were visualized, and the migrated cells were counted by ImageJ software.

[7] = mouse, in vivo
Procedure: Briefly, the mouse bodyweight of all groups was recorded throughout the treatment period. To evaluate systemic safety, after the termination of treatment, the tissues of the heart, liver, spleen, lung, and kidney were collected to calculate organ indexes [mass of the organ (mg)/bodyweight (g)] and to stain for H&E. In addition, orbital blood was sampled for a routine blood test, hepatic function test and renal function test, including RBC, WBC, ALT, and Cr.

malignant melanoma = system: malignant melanoma; design: method as in PMID 31564801; conditions: chemotherapeutic drug for MM; cited from earlier work

Row | SMILES | cell population of the S phase (A375 cells [1]; control 8.07 ± 0.39%) | cell population of the G0/G1 phase (A375 cells [1]; control 88.91 ± 0.81%) | apoptosis and necrosis (mortal cells) (A375 cells [2]) | mean survival time [3] | IC50 (A375 cells [4]) | AUC(0-inf) [5] | Cmax [5] | MRT [5] | clearance [5] | half-life [5] | invasion inhibition rate (A375 cells [6]) | ALT (alanine aminotransferase) [7] | Cr (creatinine) [7] | H&E staining of normal tissues [7] | RBC (red blood cell) [7] | WBC (white blood cell) [7] | mice bodyweight during the treatment period [7] | organ indexes versus control [7] | total effective rate (malignant melanoma)
1 | CC(C)[C@]12O[C@H]1[C@@H]1O[C@]13[C@]1(O[C@H]1C[C@H]1C4=C(CC[C@@]13C)C(=O)OC4)[C@@H]2O [TP, triptolide] | 17.73 ± 0.79% | 72.87 ± 3.71% | 22.10 ± 1.66% | 29.5 days | 0.0696 µg/mL (≈ 0.193 µM) | 1400 ± 81.4 ng·h/mL | 612 ± 100 ng/mL | 3.6 ± 1.8 min | 36.6 mL/min/kg | 18.6 ± 3.6 min | 45.54 ± 6.35% | 76.25 ± 4.03 U/L | 27.76 ± 1.52 µmol/L | heart, liver, and kidney were damaged | 8.11 ± 0.65 × 10^12/L | 6.73 ± 0.51 × 10^9/L | suffered a bodyweight loss | significantly lower than those of the control mice | –
2 | CN(C)/N=N/c1[nH]cnc1C(N)=O [dacarbazine] | – | – | – | – | – | – | – | – | – | – | – | – | – | – | – | – | – | – | 10–15%
